Test results taken from ChEMBL document CHEMBL3797052 (Eur J Med Chem, 2016).

What was measured:
Type in all cases: functional
[1] = Antiproliferative activity against human COLO205 cells assessed as cell growth at 10^-7 M after 48 hrs by sulforhodamine B assay; details: COLO 205, 48 h, read-out: Activity
[2] = Antiproliferative activity against human UACC257 cells assessed as cell growth at 10^-8 M after 48 hrs by sulforhodamine B assay; details: UACC-257, 48 h, read-out: Activity
[3] = tested on: M14; assay: Antiproliferative activity against human M14 cells assessed as growth inhibition after 48 hrs by sulforhodamine B assay; details: M14, 48 h; for CC50: read-out: LC50 (the source's name)
[4] = Antiproliferative activity against human COLO205 cells assessed as cell growth at 10^-8 M after 48 hrs by sulforhodamine B assay; details: COLO 205, 48 h, read-out: Activity
[5] = tested on: SN12C; assay: Antiproliferative activity against human SN12C cells assessed as cell growth at 10^-4 M after 48 hrs by sulforhodamine B assay; details: read-out: Activity
[6] = Antiproliferative activity against human UACC257 cells assessed as growth inhibition after 48 hrs by sulforhodamine B assay; details: UACC-257, 48 h; for CC50: read-out: LC50 (the source's name)
[7] = Antiproliferative activity against human SNB75 cells assessed as growth inhibition after 48 hrs by sulforhodamine B assay; details: SNB-75, 48 h; for CC50: read-out: LC50 (the source's name)
[8] = tested on: SN12C; assay: Antiproliferative activity against human SN12C cells assessed as cell growth at 10^-7 M after 48 hrs by sulforhodamine B assay; details: read-out: Activity
[9] = tested on: MCF7; assay: Antiproliferative activity against human MCF7 cells assessed as cell growth at 10^-4 M after 48 hrs by sulforhodamine B assay; details: MCF7, 48 h, read-out: Activity
[10] = tested on: NCI-H522; assay: Antiproliferative activity against human NCI-H522 cells assessed as growth inhibition after 48 hrs by sulforhodamine B assay; details: NCI-H522, 48 h
[11] = Antiproliferative activity against human HCT116 cells assessed as cell growth at 10^-4 M after 48 hrs by sulforhodamine B assay; details: HCT-116, 48 h, read-out: Activity
[12] = tested on: NCI-H226; assay: Antiproliferative activity against human NCI-H226 cells assessed as cell growth at 10^-4 M after 48 hrs by sulforhodamine B assay; details: NCI-H226, 48 h, read-out: Activity
[13] = Antiproliferative activity against human OVCAR4 cells assessed as cell growth at 10^-7 M after 48 hrs by sulforhodamine B assay; details: OVCAR-4, 48 h, read-out: Activity
[14] = Antiproliferative activity against human BT549 cells assessed as cell growth at 10^-6 M after 48 hrs by sulforhodamine B assay; details: BT-549, 48 h, read-out: Activity
[15] = Antiproliferative activity against human SF539 cells assessed as cell growth at 10^-8 M after 48 hrs by sulforhodamine B assay; details: SF-539, 48 h, read-out: Activity
[16] = tested on: T47D; assay: Antiproliferative activity against human T47D cells assessed as growth inhibition after 48 hrs by sulforhodamine B assay; details: for CC50: read-out: LC50 (the source's name)
[17] = Antiproliferative activity against human SF295 cells assessed as cell growth at 10^-6 M after 48 hrs by sulforhodamine B assay; details: SF-295, 48 h, read-out: Activity
[18] = Antiproliferative activity against human OVCAR3 cells assessed as cell growth at 10^-4 M after 48 hrs by sulforhodamine B assay; details: OVCAR-3, 48 h, read-out: Activity
[19] = Antiproliferative activity against human HCC2998 cells assessed as cell growth at 10^-4 M after 48 hrs by sulforhodamine B assay; details: HCC 2998, 48 h, read-out: Activity
[20] = Antiproliferative activity against human MOLT4 cells assessed as cell growth at 10^-6 M after 48 hrs by sulforhodamine B assay; details: MOLT-4, 48 h, read-out: Activity
[21] = Antiproliferative activity against human NCI-ADR-RES cells assessed as cell growth at 10^-7 M after 48 hrs by sulforhodamine B assay; details: read-out: Activity
[22] = Antiproliferative activity against human PC3 cells assessed as cell growth at 10^-8 M after 48 hrs by sulforhodamine B assay; details: PC-3, 48 h, read-out: Activity
[23] = Antiproliferative activity against human RXF393 cells assessed as cell growth at 10^-6 M after 48 hrs by sulforhodamine B assay; details: RXF 393, 48 h, read-out: Activity
[24] = Antiproliferative activity against human PC3 cells assessed as cell growth at 10^-4 M after 48 hrs by sulforhodamine B assay; details: PC-3, 48 h, read-out: Activity
[25] = Antiproliferative activity against human HOP62 cells assessed as growth inhibition after 48 hrs by sulforhodamine B assay; details: HOP-62, 48 h
[26] = tested on: K562; assay: Antiproliferative activity against human K562 cells assessed as cell growth at 10^-6 M after 48 hrs by sulforhodamine B assay; details: K562, 48 h, read-out: Activity
[27] = tested on: MDA-MB-435; assay: Antiproliferative activity against human MDA-MB-435 cells assessed as cell growth at 10^-4 M after 48 hrs by sulforhodamine B assay; details: MDA-MB-435, 48 h, read-out: Activity
[28] = Antiproliferative activity against human UO31 cells assessed as cell growth at 10^-6 M after 48 hrs by sulforhodamine B assay; details: UO-31, 48 h, read-out: Activity
[29] = tested on: A498; assay: Antiproliferative activity against human A498 cells assessed as cell growth at 10^-8 M after 48 hrs by sulforhodamine B assay; details: A498, 48 h, read-out: Activity
[30] = tested on: SK-MEL-2; assay: Antiproliferative activity against human SK-MEL-2 cells assessed as cell growth at 10^-4 M after 48 hrs by sulforhodamine B assay; details: SK-MEL-2, 48 h, read-out: Activity
[31] = Antiproliferative activity against human PC3 cells assessed as cell growth at 10^-7 M after 48 hrs by sulforhodamine B assay; details: PC-3, 48 h, read-out: Activity
[32] = tested on: SK-MEL-28; assay: Antiproliferative activity against human SK-MEL-28 cells assessed as growth inhibition after 48 hrs by sulforhodamine B assay; details: SK-MEL-28, 48 h; for CC50: read-out: LC50 (the source's name)
[33] = Antiproliferative activity against human LOXIMVI cells assessed as cell growth at 10^-6 M after 48 hrs by sulforhodamine B assay; details: LOX IMVI, read-out: Activity
[34] = Antiproliferative activity against human OVCAR8 cells assessed as growth inhibition after 48 hrs by sulforhodamine B assay; details: OVCAR-8, 48 h
[35] = Antiproliferative activity against human HCT15 cells assessed as cell growth at 10^-8 M after 48 hrs by sulforhodamine B assay; details: HCT-15, 48 h, read-out: Activity
[36] = tested on: CCRF-CEM; assay: Antiproliferative activity against human CCRF-CEM cells assessed as growth inhibition after 48 hrs by sulforhodamine B assay; details: for CC50: read-out: LC50 (the source's name)

CNC(=O)c1cc(Oc2ccc3nc(NC(=O)Nc4ccc(Cl)c(Cl)c4)sc3c2)ccn1
growth at 0.1 µM [1]: 105%
growth at 0.01 µM [2]: 92%
GI50 [3]: 2.13 µM
TGI [3]: 4.74 µM
CC50 [3]: > 100 µM
growth at 0.01 µM [4]: 102%
growth at 100 µM [5]: 9%
GI50 [6]: 2.25 µM
CC50 [6]: > 100 µM
GI50 [7]: 1.73 µM
TGI [7]: 3.61 µM
CC50 [7]: 7.54 µM
growth at 0.1 µM [8]: 107%
growth at 100 µM [9]: 7%
GI50 [10]: 4.09 µM
LC50 (concentration killing 50% of cells) [10]: > 100 µM
TGI [10]: > 100 µM
growth at 100 µM [11]: -54%
growth at 100 µM [12]: -59%
growth at 0.1 µM [13]: 100%
growth at 1 µM [14]: 102%
growth at 0.01 µM [15]: 92%
GI50 [16]: 2.65 µM
TGI [16]: 6.36 µM
CC50 [16]: > 100 µM
growth at 1 µM [17]: 79%
growth at 100 µM [18]: -24%
growth at 100 µM [19]: 37%
growth at 1 µM [20]: 99%
growth at 0.1 µM [21]: 98%
growth at 0.01 µM [22]: 96%
growth at 1 µM [23]: 94%
growth at 100 µM [24]: -50%
GI50 [25]: 2.24 µM
LC50 [25]: 7.15 µM
TGI [25]: 4 µM
growth at 1 µM [26]: 98%
growth at 100 µM [27]: -30%
growth at 1 µM [28]: 106%
growth at 0.01 µM [29]: 101%
growth at 100 µM [30]: -48%
growth at 0.1 µM [31]: 100%
GI50 [32]: 1.74 µM
TGI [32]: 3.56 µM
CC50 [32]: 7.31 µM
growth at 1 µM [33]: 95%
GI50 [34]: 2.36 µM
LC50 [34]: 73.9 µM
TGI [34]: 5.27 µM
growth at 0.01 µM [35]: 89%
GI50 [36]: > 100 µM
TGI [36]: > 100 µM
CC50 [36]: > 100 µM

CNC(=O)c1cc(Oc2ccc3nc(NC(=O)c4cc(C(F)(F)F)cc(C(F)(F)F)c4)sc3c2)ccn1
growth at 0.1 µM [1]: 91%
growth at 0.01 µM [2]: 87%
GI50 [3]: 3.61 µM
TGI [3]: 19.5 µM
CC50 [3]: > 100 µM
growth at 0.01 µM [4]: 99%
growth at 100 µM [5]: -53%
GI50 [6]: 2.89 µM
TGI [6]: 8.12 µM
CC50 [6]: > 100 µM
GI50 [7]: 3.13 µM
TGI [7]: 14.8 µM
CC50 [7]: 96.5 µM
growth at 0.1 µM [8]: 101%
growth at 100 µM [9]: -49%
GI50 [10]: 2.82 µM
LC50 (concentration killing 50% of cells) [10]: 64.1 µM
TGI [10]: 8.77 µM
growth at 100 µM [11]: -84%
growth at 100 µM [12]: -59%
growth at 0.1 µM [13]: 92%
growth at 1 µM [14]: 92%
growth at 0.01 µM [15]: 101%
GI50 [16]: 3.04 µM
TGI [16]: 9.18 µM
CC50 [16]: > 100 µM
growth at 1 µM [17]: 83%
growth at 100 µM [18]: -79%
growth at 100 µM [19]: -60%
growth at 1 µM [20]: 85%
growth at 0.1 µM [21]: 103%
growth at 0.01 µM [22]: 96%
growth at 1 µM [23]: 97%
growth at 100 µM [24]: -42%
GI50 [25]: 3.36 µM
LC50 [25]: 51.6 µM
TGI [25]: 10.8 µM
growth at 1 µM [26]: 102%
growth at 100 µM [27]: -15%
growth at 1 µM [28]: 78%
growth at 0.01 µM [29]: 69%
growth at 100 µM [30]: -53%
growth at 0.1 µM [31]: 94%
GI50 [32]: 3.76 µM
TGI [32]: 43.7 µM
CC50 [32]: > 100 µM
growth at 1 µM [33]: 94%
GI50 [34]: 3.06 µM
LC50 [34]: 69.9 µM
TGI [34]: 13 µM
growth at 0.01 µM [35]: 104%
GI50 [36]: 3.47 µM
TGI [36]: > 100 µM
CC50 [36]: > 100 µM
